# Laboratory results published in US20020058266A1, “EF-Tu protein encoded on the plastid DNA of the malaria parasite and protein synthesis inhibitors effective as anti-malarial compounds” (priority 1997, published 2002).
# pIC50: −log10 of the molar value.
# Assays:
# [1] = test system: GTPase domain of the 23S rRNApl of Toxoplasma gondii; assay: Thiostrepton filter binding assay, T. gondii 23S rRNApl transcripts
# Method: B) T. gondii wild type rRNApl transcript (filled triangle) and mutated transcript (open triangle) compared with control transcripts from P.falciparum rRNApl (open circle) and E.coli (filled circle).
# (§1) Drug binding—Thiostrepton binding to short rRNA transcripts generated in vitro was assayed according to Ryan et al 1991, as modified by Clough et al 1997. […] Before […], samples were incubated on ice for 15 mins in 50 mM imidazole acetate (pH 7.6), 10 mM NH4Cl, 10 mM MgCl2, 1 mM […] and 100 μM GDP, in a final volume of 20 μl.
# In the same way, we tested a transcript corresponding to the GTPase domain of the 23S rRNApl of Toxoplasma gondii (Tg), a related apicomplexan that is an important opportunistic pathogen in patients with AIDS. […] This was found also to be the case with a transcript derived from a PCR product covering the GTPase domain of Tgpl 23S rRNA (nt 926-1024) (FIG. 8B). Corrective mutation of the Tgpl transcript (E. coli number […]) conferred a significant increase (×5) in thiostrepton binding (FIG. 8B).
# [2] = test system: GTPase domain of the E. coli 23S rRNA; assay: Thiostrepton binding assay, E. coli 23S rRNA transcript; details: contains the A at position 1067
# Method: The binding was specific. It depended to a large extent on the presence of an A residue at the position corresponding to E. coli position 1067. […] A transcript corresponding to the GTPase domain of the cytosolic malaria 28S rRNA also bound thiostrepton poorly.
# as §1
# Having established thiostrepton's activity, we asked “does the antibiotic bind preferentially to the nuclear, mitochondrial or plastid forms of Pf 28/23 S rRNA?”. Evidence that the highest affinity interaction of thiostrepton is with 23S rRNApl was obtained from an in vitro binding assay (Ryan et al 1991). Short transcripts of wild type (wt) RNA corresponding to the GTPase domain of Pf 23S rRNApl (nts 987-1078) were transcribed in vitro from a PCR product that included a T7 promoter sequence in one of the primers. Mutated malarial rRNA sequences (E.coli numbers A1067U and A1067G) were obtained by PCR methodology and transcribed in the same way. Both wild type and modified transcript sequences were verified prior to thiostrepton binding assays. […]
# [3] = test system: erythrocytic stages of P.falciparum; assay: Incorporation of radiotracers (3H-hypoxanthine, 14C-isoleucine) by P.falciparum growing in blood cultures; type: cell-based, Plasmodium falciparum
# Method: Antibiotics—Samples of Mocimycin (kirromycin), Aurodox (N-methylated kirromycin), and Efrotomycin (a glycoside of kirromycin) were used. Aurodox was dissolved in RPMI-Albumax medium (Grande et al 1977), kirromycin was dissolved in RPMI made alkaline by addition of 1M NaOH, and efrotomycin was dissolved in ethanol before dilution in culture medium. Enacyloxin IIA was dissolved in 1% NaHCO3 prior to dilution in RPMI-Albumax medium. The antibiotic GE2270A was dissolved in 100% DMSO before dilution in culture medium. Fusidic acid (Sigma) was dissolved directly in culture medium, and thiostrepton (Sigma) in 100% DMSO before dilution in culture medium. A hemisuccinate form of thiostrepton was prepared as a potassium salt, according to Bodanszky et al 1965. Incorporation of radiotracers by P.falciparum growing in blood cultures in the presence and absence of drugs was carried out as described (Strath et al 1993).
# Kirromycin: Kirromycin-resistant forms of bacterial EF-Tu are modified at one of seven amino acids along the opposing interfaces of domains I and III (Mesters et al 1994 and Abdulkarim et al 1994) and Pf EF-Tupl has a substitution at one of these sites (A375S-E.coli numbers) that could potentially confer resistance to kirromycin. To test this possibility, kirromycin (Mocimycin), its methylated derivative Aurodox or its disaccharide derivative Efrotomycin were incubated with erythrocytic stages of P.falciparum grown in cultures over a 36 hr period. The incorporation of both ^3H-hypoxanthine and ^14C-isoleucine was inhibited in a dose-dependent fashion, maximum inhibition being achieved at 100 μM kirromycin (FIG. 5). […] Once maximal depression of incorporation had been reached at any particular dose of drug, residual incorporation continued at a uniform rate thereafter. Vital staining with rhodamine 123, a fluorescent dye that concentrates within the mitochondrion (Divo et al. 1985) confirmed the parasiticidal effect, loss of specific mt staining being evident within 2-3 hours (data not shown). […] Blood cultures of P.falciparum were about 10 times more sensitive to the antibiotic than a gram-positive bacterium (Corynebacterium spp) used in parallel bioassays.
# [4] = test system: GTPase domain of the cytosolic Pf 28S rRNA; assay: Thiostrepton filter binding assay, cytosolic Pf 28S rRNA transcript; parameters: species or system Plasmodium falciparum; details: GTPase domain nt 1334-1427
# Method: (§2) A) Short 23S transcripts of P.falciparum (Pf) wild type rRNApl (open circle A1067) and mutated forms (open square A1067U and filled triangle A1067G), as well as Pf 28S rRNA transcripts (filled square), are compared with an optimized E.coli control transcript (filled circle). For convenience, nucleotide numbers correspond to E.coli.
# as §1
# Having established thiostrepton's activity, we asked “does the antibiotic bind preferentially to the nuclear, mitochondrial or plastid forms of Pf 28/23 S rRNA?”. Evidence that the highest affinity interaction of thiostrepton is with 23S rRNApl was obtained from an in vitro binding assay (Ryan et al 1991). Short transcripts of wild type (wt) RNA corresponding to the GTPase domain of Pf 23S rRNApl (nts 987-1078) were transcribed in vitro from a PCR product that included a T7 promoter sequence in one of the primers. Mutated malarial rRNA sequences (E.coli numbers A1067U and A1067G) were obtained by PCR methodology and transcribed in the same way. […]
# [5] = test system: GTPase domain of Pf 23S rRNApl; assay: Thiostrepton filter binding assay, transcripts of the GTPase domain of Pf 23S rRNApl (wild type and mutated); parameters: species or system Plasmodium falciparum
# Method: as §2, §1
# Having established thiostrepton's activity, we asked “does the antibiotic bind preferentially to the nuclear, mitochondrial or plastid forms of Pf 28/23 S rRNA?”. Evidence that the highest affinity interaction of thiostrepton is with 23S rRNApl was obtained from an in vitro binding assay (Ryan et al 1991). Short transcripts of wild type (wt) RNA corresponding to the GTPase domain of Pf 23S rRNApl (nts 987-1078) were transcribed in vitro from a PCR product that included a T7 promoter sequence in one of the primers. Mutated malarial rRNA sequences (E.coli numbers A1067U and A1067G) were obtained by PCR methodology and transcribed in the same way. Both wild type and modified transcript sequences were verified prior to thiostrepton binding assays. A positive control transcript was used based on the 23S rRNA sequence of E.coli with a mutation (U1061A) that increases stability and binding. […] An intermediate level of binding (˜35% of wt) was obtained with the mutation Pfpl (E.coli number A1067G). Thiostrepton binding to a transcript corresponding to the GTPase domain (nt 1334-1427) of the cytosolic Pf 28S rRNA was ˜10% of that for Pf 23S rRNApl.
smiles,measurement,setting,value
C=C(NC(=O)C(=C)NC(=O)c1csc(C2=N[C@@H]3c4csc(n4)[C@H]4NC(=O)c5csc(n5)[C@H]([C@](C)(O)[C@@H](C)O)NC(=O)[C@H]5CSC(=N5)/C(=C/C)NC(=O)[C@H]([C@@H](C)O)NC(=O)c5csc(n5)[C@]3(CC2)NC(=O)[C@H](C)NC(=O)C(=C)NC(=O)[C@H](C)NC(=O)[C@H]([C@@H](C)CC)N[C@@H]2C=Cc3c([C@H](C)O)cc(nc3[C@H]2O)C(=O)O[C@@H]4C)n1)C(N)=O [thiostrepton],increase in thiostrepton binding by corrective mutation U1077A,"[1]; Tgpl transcript, E. coli number U1077A versus wild type",5 ×
same,thiostrepton binding to wild type Tgpl transcript,"[1]; wild type has substitution E.coli number A1077U, nt 926-1024",inhibits binding
same,thiostrepton binding to E. coli transcript,[2],bind thiostrepton strongly
same,onset of inhibition of protein synthesis,[3],5 h
same,pIC50,"[3]; Plasmodium falciparum, 3 h, read-out: 50% inhibition of uptake of 3H-hypoxanthine and 14C-isoleucine",5.30 to 5.52
same,thiostrepton binding to Pf 28S rRNA transcript relative to Pf 23S rRNApl,[4],~10%
same,"thiostrepton binding, mutation A1067G","[5]; Pfpl transcript, E.coli number A1067G",~35 % of wt
same,"thiostrepton binding, mutation A1067U","[5]; Pfpl transcript, E.coli number A1067U",~14 % of wt
same,thiostrepton binding to wild type transcript,"[5]; short transcript of the GTPase domain, malaria plastid",bound thiostrepton strongly
